Measured values taken from patent EP3570868B1, “[…] ANTIMICROBIAL PEPTIDES AND THEIR APPLICATIONS FOR THE TREATMENT AND PREVENTION OF MUSCU[…]” (Ustav Organicke Chemie a Biochemie AV CR, v.v.i., priority 2017, dated 2018).
Peptide text beside a SMILES is read from it.

Test system: Candida albicans yeast (clinical isolate Olomouc)
Test: Comparison of two similar halictin peptides for biofilm formation on the implant surface (yeast pipetted into a hole between implants)
Format: cell-based
Conditions: 3.5 mg peptide in 100 mg powder cement component; two days; implant without peptide 1.8 × 10^3
Procedure: The experiment was performed under similar conditions as described in Example 5. Here, 100 mg of the powder cement component was used to prepare a paste, which was mixed with in 3.5 mg of peptide XIII and subsequently 52 µl of liquid component. The resulting paste was thoroughly mixed and then pressed into a hole prepared in the spongy part of the bone. To a next hole in the spongy part of the same bone a paste was pressed, containing comparative peptide Hal 2/4 (3.5 mg) with the sequence H-[…]NH2, which was also prepared from 100 mg of the powder component and 52 µl of the liquid component. The third hole was filled with paste without peptide prepared from the same amount of components. The Candida albicans yeast (clinical isolate Olomouc), grown in YPG, was pipetted in the hole excavated between implants equidistant (approximately 1 cm) from each. From there, the yeast penetrated through the bone tissue and was deposited on the implant with consequent formation of biofilms.
Then the implants in closed tubes with 0.4 ml of saline were treated ultrasonically four times for three minutes with occasional shaking. This way, microbial biofilm on the surface of the implant was disrupted and microbes loosed into the physiological saline. The resulting suspension was then diluted in a decimal dilution series for culturing on agar. […]

## CC[C@H](C)[C@H](NC(=O)[C@H](CCCCN)NC(=O)[C@H](CCCCN)NC(=O)[C@H](CC(C)C)NC(=O)[C@H](CC(C)C)NC(=O)[C@H](CO)NC(=O)[C@H](CCSC)NC(=O)[C@H](Cc1c[nH]c2ccccc12)NC(=O)[C@@H](N)CCCCN)C(=O)N[C@@H](CC(C)C)C(=O)N[C@@H](CCCCN)C(N)=O [Hal 4/2, reference compound] (H-KWMSLLKKILK-NH2)
  number of colonies from the surface of the implant: 2.8 × 10^2 CFU/implant
